Reference: ChEMBL document CHEMBL6182930, “Discovery of TBK1Molecular Glue Degraders as a Potential Strategy for the Treatment of Autosomal Dominant Polycystic Kidney Disease (ADPKD)” (J Med Chem, 2025)
The source made the active and inactive calls. No cut-off for these calls is given here.

Experiments:
[1] = target: Protein cereblon/Serine/threonine-protein kinase TBK1 (Homo sapiens) (UniProt Q9UHD2+Q96SW2); experiment: PROTAC activity at CRBN/TBK1 in human A549 cells assessed as induction of TBK1 degradation at 1 to 10 uM incubated for 16 hrs by Western blot analysis; type: cell-based; details: dose 1-10 µM
Protein cereblon/Serine/threonine-protein kinase TBK1 (Homo sapiens), sequence (Q96SW2 whole entry, looked up, one chain of several): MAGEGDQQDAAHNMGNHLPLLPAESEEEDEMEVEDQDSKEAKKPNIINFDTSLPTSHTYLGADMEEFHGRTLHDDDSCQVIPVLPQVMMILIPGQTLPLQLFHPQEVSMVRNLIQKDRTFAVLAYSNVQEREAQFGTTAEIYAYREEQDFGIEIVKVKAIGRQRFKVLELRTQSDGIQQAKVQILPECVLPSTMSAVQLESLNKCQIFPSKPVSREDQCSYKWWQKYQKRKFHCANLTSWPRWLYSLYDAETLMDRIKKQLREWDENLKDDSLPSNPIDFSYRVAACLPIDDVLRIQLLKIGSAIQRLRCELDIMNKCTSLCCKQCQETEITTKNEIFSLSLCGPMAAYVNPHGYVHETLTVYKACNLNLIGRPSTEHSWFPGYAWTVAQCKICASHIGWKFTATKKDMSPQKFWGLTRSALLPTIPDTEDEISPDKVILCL

[2] = target: T1, E3 ubiquitin-protein ligase RNF126/Serine/threonine-protein kinase TBK1 (Homo sapiens, UniProt Q9UHD2+Q9BV68); experiment: Molecular glue activity at RNF126/TBK1 in human A549 cells assessed as induction of TBK1 degradation at 1 uM incubated for 16 hrs by Western blot analysis; type: cell-based
T1 sequence (Q9BV68 2-311 partner limits assumed, one chain of several): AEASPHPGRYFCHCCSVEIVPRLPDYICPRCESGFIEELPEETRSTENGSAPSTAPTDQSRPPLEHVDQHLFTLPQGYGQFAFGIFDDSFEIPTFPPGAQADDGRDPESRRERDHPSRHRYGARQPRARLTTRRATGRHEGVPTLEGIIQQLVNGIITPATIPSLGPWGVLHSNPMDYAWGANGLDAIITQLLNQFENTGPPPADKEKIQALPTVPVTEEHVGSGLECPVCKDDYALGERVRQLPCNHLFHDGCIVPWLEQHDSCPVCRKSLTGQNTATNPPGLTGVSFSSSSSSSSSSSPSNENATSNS

[3] = target: T1, E3 ubiquitin-protein ligase RNF126/Serine/threonine-protein kinase TBK1; experiment: Molecular glue activity at RNF126/TBK1 in HEK293T cells assessed as induction of TBK1 degradation at 1 uM incubated for 16 hrs by Western blot analysis; type: cell-based
[4] = target: T2, Serine/threonine-protein kinase TBK1 (Homo sapiens, UniProt Q9UHD2); experiment: Inhibition of TBK1-dependent SEAP reporter gene expression in LPS-stimulated human THP1-Blue ISG cells incubated for 24 hrs by QUANTI-Blue reagent based analysis; type: cell-based
T2 sequence (Q9UHD2 whole entry): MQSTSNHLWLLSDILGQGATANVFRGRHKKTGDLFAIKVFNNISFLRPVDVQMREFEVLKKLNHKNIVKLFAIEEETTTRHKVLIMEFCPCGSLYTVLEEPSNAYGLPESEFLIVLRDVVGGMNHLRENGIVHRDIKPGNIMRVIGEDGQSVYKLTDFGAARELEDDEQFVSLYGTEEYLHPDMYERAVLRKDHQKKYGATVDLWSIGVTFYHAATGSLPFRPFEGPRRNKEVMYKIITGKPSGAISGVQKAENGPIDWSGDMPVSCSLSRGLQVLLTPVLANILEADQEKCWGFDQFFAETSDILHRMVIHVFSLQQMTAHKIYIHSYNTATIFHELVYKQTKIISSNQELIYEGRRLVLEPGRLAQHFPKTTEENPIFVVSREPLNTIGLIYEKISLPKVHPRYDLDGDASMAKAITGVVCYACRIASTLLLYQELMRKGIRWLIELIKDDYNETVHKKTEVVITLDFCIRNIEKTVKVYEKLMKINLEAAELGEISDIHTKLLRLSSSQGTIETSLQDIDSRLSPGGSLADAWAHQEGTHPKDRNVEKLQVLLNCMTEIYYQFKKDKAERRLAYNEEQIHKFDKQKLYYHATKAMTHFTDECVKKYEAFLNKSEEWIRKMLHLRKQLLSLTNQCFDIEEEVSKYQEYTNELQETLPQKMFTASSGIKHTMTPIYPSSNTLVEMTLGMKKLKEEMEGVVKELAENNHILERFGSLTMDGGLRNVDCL

MDCK = experiment: Inhibition of cystogenesis in forskolin-stimulated MDCK cells assessed as reduction in cyst growth at 100 nM administrated for 8 days starting from day 4 to day 12 by imaging analysis; type: functional, cell-based; details: Canis lupus familiaris, time 8.0 day

SMILES | Activity [1] | other results
COc1ccc(C(=O)/C=C(\C#N)C(=O)N2CCN(Cc3cccc(Nc4ncc5ccn(CCCNC(=O)C6CCC6)c5n4)c3)CC2)cc1 | – | Activity [2]: inactive; Activity [3]: inactive
COc1ccc(C(=O)/C=C/C(=O)N2CCN(C)CC2)cc1 | – | Activity [2]: inactive; Activity [3]: inactive
COc1ccc(C(=O)/C=C/C(=O)N2CCN(Cc3cccc(Nc4ncc5ccn(CCCNC(=O)C6CCC6)c5n4)c3)CC2)cc1 | – | Activity [2]: Active; Activity [3]: Active
Cc1ncsc1-c1ccc(CNC(=O)[C@@H]2C[C@@H](O)CN2C(=O)[C@H](NC(=O)CCC(=O)N2CCN(Cc3cccc(Nc4ncc5ccn(CCCNC(=O)C6CCC6)c5n4)c3)CC2)C(C)(C)C)cc1 | Active; Compound Exhibited Only Weak Degradation Compared To Control 3I | –
Cc1ncsc1-c1ccc(CNC(=O)[C@@H]2C[C@@H](O)CN2C(=O)[C@H](NC(=O)CCCCC(=O)N2CCN(Cc3cccc(Nc4ncc5ccn(CCCNC(=O)C6CCC6)c5n4)c3)CC2)C(C)(C)C)cc1 | inactive | –
COc1ccc(C(=O)/C=C/C(=O)N2CCN(Cc3ccc(Nc4ncc5ccn(CCCNC(=O)C6CCC6)c5n4)cc3)CC2)cc1 | – | Activity [2]: Active; Activity [3]: Active
Cc1ncsc1-c1ccc(CNC(=O)[C@H]2C[C@H](O)CN2C(=O)[C@@H](NC(=O)COCCOCCOCC(=O)N2CCN(Cc3cccc(Nc4ncc5ccn(CCCNC(=O)C6CCC6)c5n4)c3)CC2)C(C)(C)C)cc1 | inactive | –
CC(=O)N1CCN(Cc2cccc(Nc3ncc4ccn(CCCNC(=O)C5CCC5)c4n3)c2)CC1 | – | IC50 [4]: 228 nM; inhibition (MDCK): inactive
Cc1ncsc1-c1ccc(CNC(=O)[C@H]2C[C@H](O)CN2C(=O)[C@@H](NC(=O)COCC(=O)N2CCN(Cc3cccc(Nc4ncc5ccn(CCCNC(=O)C6CCC6)c5n4)c3)CC2)C(C)(C)C)cc1 | inactive | –
Cc1ncsc1-c1ccc(CNC(=O)[C@@H]2C[C@@H](O)CN2C(=O)[C@@H](NC(=O)COCCCOCCCCOCCCOc2ccc(Nc3ncc(Br)c(NCCCN(C)C(=O)C4CCC4)n3)cc2)C(C)(C)C)cc1 | – | IC50 [4]: 76.4 nM
O=C1CCC(N2C(=O)c3cccc(NCCCC(=O)N4CCN(Cc5cccc(Nc6ncc7ccn(CCCNC(=O)C8CCC8)c7n6)c5)CC4)c3C2=O)C(=O)N1 (stereo unspecified) | Active; Compound Exhibited Only Weak Degradation Compared To Control 3I | –
COc1ccc(C(=O)/C(C#N)=C/C(=O)N2CCN(Cc3cccc(Nc4ncc5ccn(CCCNC(=O)C6CCC6)c5n4)c3)CC2)cc1 | – | Activity [2]: inactive; Activity [3]: inactive
COc1ccc(C(=O)CCC(=O)N2CCN(CC3CCN(Cc4cccc(Nc5ncc6ccn(CCCNC(=O)C7CCC7)c6n5)c4)CC3)CC2)cc1 | – | Activity [2]: inactive; Activity [3]: inactive
O=C1CCC(N2C(=O)c3ccc(OCCCCCC(=O)N4CCN(Cc5cccc(Nc6ncc7ccn(CCCNC(=O)C8CCC8)c7n6)c5)CC4)cc3C2=O)C(=O)N1 (stereo unspecified) | Active; Compound Exhibited Only Weak Degradation Compared To Control 3I | –

More lines, main results first:

Activity [1] | SMILES | other results
inactive | O=C1CCC(N2C(=O)c3cccc(NCCCCCCCC(=O)N4CCN(Cc5cccc(Nc6ncc7ccn(CCCNC(=O)C8CCC8)c7n6)c5)CC4)c3C2=O)C(=O)N1 (stereo unspecified) | –
inactive | O=C1CCC(N2C(=O)c3ccc(OCCCCCCCCCCCC(=O)N4CCN(Cc5cccc(Nc6ncc7ccn(CCCNC(=O)C8CCC8)c7n6)c5)CC4)cc3C2=O)C(=O)N1 (stereo unspecified) | –
inactive | Cc1ncsc1-c1ccc(CNC(=O)[C@@H]2C[C@@H](O)CN2C(=O)[C@H](NC(=O)CCCCCCCCCCC(=O)N2CCN(Cc3cccc(Nc4ncc5ccn(CCCNC(=O)C6CCC6)c5n4)c3)CC2)C(C)(C)C)cc1 | –
inactive | O=C1CCC(N2C(=O)c3cccc(NCCCCCCCCCC(=O)N4CCN(Cc5cccc(Nc6ncc7ccn(CCCNC(=O)C8CCC8)c7n6)c5)CC4)c3C2=O)C(=O)N1 (stereo unspecified) | –
inactive | O=C1CCC(N2C(=O)c3cccc(NCCOCCOCCC(=O)N4CCN(Cc5cccc(Nc6ncc7ccn(CCCNC(=O)C8CCC8)c7n6)c5)CC4)c3C2=O)C(=O)N1 (stereo unspecified) | –
inactive | O=C1CCC(N2C(=O)c3ccc(OCCCCCCCC(=O)N4CCN(Cc5cccc(Nc6ncc7ccn(CCCNC(=O)C8CCC8)c7n6)c5)CC4)cc3C2=O)C(=O)N1 (stereo unspecified) | –
inactive | O=C1CCC(N2C(=O)c3ccc(OCCCCCCCCCC(=O)N4CCN(Cc5cccc(Nc6ncc7ccn(CCCNC(=O)C8CCC8)c7n6)c5)CC4)cc3C2=O)C(=O)N1 (stereo unspecified) | –
inactive | Cc1ncsc1-c1ccc(CNC(=O)[C@@H]2C[C@@H](O)CN2C(=O)[C@H](NC(=O)CCCCCCCCC(=O)N2CCN(Cc3cccc(Nc4ncc5ccn(CCCNC(=O)C6CCC6)c5n4)c3)CC2)C(C)(C)C)cc1 | –
inactive | O=C1CCC(N2C(=O)c3cccc(NCCCCCC(=O)N4CCN(Cc5cccc(Nc6ncc7ccn(CCCNC(=O)C8CCC8)c7n6)c5)CC4)c3C2=O)C(=O)N1 (stereo unspecified) | –
inactive | Cc1ncsc1-c1ccc(CNC(=O)[C@@H]2C[C@@H](O)CN2C(=O)[C@H](NC(=O)CCCCCCC(=O)N2CCN(Cc3cccc(Nc4ncc5ccn(CCCNC(=O)C6CCC6)c5n4)c3)CC2)C(C)(C)C)cc1 | –
